Entries after “also recorded” stand apart in the source; their conditions may differ.
Experiments:
rats [1] = assay: 8-arm radial maze delayed non-match to sample task; assay type: in vivo, rat; conditions: FIG. 1
Protocol: (§1) The effects of atomoxetine on learning and memory in rats are evaluated in two different animal models. In an 8-arm radial maze delayed non-match to sample (DNMTS) task, well-trained rats recall where they received rewards during an information phase in order to obtain the remaining rewards during a retention phase conducted after a delay of several hours. Performance in this task is influenced by the administration of putative amnesics and cognitive enhancers (Staubli U, Rogers G, Lynch G (1994) Facilitation of glutamate receptors enhances memory. Proc Natl Acad Sci USA 91: 777-781; Pilcher J J, Sessions G R, McBride S A (1997) Scopolamine impairs spatial working memory in the radial maze: an analysis by error type and arm choice. Pharmacol Biochem Behav 58: 449-459; Pussinen R, Sirvio J (1999) Effects of D-cycloserine, a positive modulator of N-methyl-D-aspartate receptors, and ST 587, a putative alpha-1 adrenergic agonist, individually and in combination, on the non-delayed and delayed foraging behaviour of rats assessed in the radial arm maze. J Psychopharinacol 13:171-179; Wolff M. C., Leander, J. David (2003) A comparison of the effects of antipsychotics on a delayed radial maze task in the rat. Psychopharmacolology 168:410-416). […]

rats [2] = assay: Object recognition test; assay type: in vivo, rat; conditions: three hour delay, 60 minutes pre-treatment, FIG. 2
Protocol: as §1, with “maze.” for “maze. J Psychopharinacol 13:171-179; Wolff M. C., Leander, J. David (2003) A comparison of the effects of antipsychotics on a delayed radial maze task in the rat. Psychopharmacolology 168:410-416).”
During the testing phase of the experiment, rats are administered appropriate vehicle or drug (N=9/dose) and placed back in their home cage for the pre-treatment period (60 minutes). […] The time spent sniffing (nose <2.5 cm from the object), gnawing, or touching the objects with the front paws is recorded. […]

Compound: CNCC[C@@H](Oc1ccccc1C)c1ccccc1 [atomoxetine, (R)-(−)-N-methyl-3-(2-methyl-phenoxy)-3-phenylpropylamine]
- errors in the 8 arm radial maze retention paradigm (rats [1]): reduction of errors
- learning and memory performance in the 8 arm radial maze (rats [1]; oral, 7 hour delay): improves learning and memory performance
- object recognition (rats [2]): improves object recognition; also recorded: improvement of object recognition
